From article PMC12454493, “Insight on novel sulfamoylphenyl pyrazole derivatives as anticancer carbonic anhydrase inhibitors” (Molecular Diversity, 2024)
“And” between values parts separate entries of the source, which are not always exact repeats. Equal entries are not always repeated.

Key:
CCRF-CEM = test: NCI-60 one-dose SRB screen (Leukemia); format: cell-based; settings: Homo sapiens, single dose 10 µM, 48 h, read-out: Growth inhibition percent (GI %)
HL-60(TB) = test: NCI-60 one-dose SRB screen (Leukemia); format: cell-based; settings: Homo sapiens, single dose 10 µM, 48 h, read-out: Growth inhibition percent (GI %)
K-562 = test: NCI-60 one-dose SRB screen (Leukemia); format: cell-based; settings: Homo sapiens, K562, single dose 10 µM, 48 h, read-out: Growth inhibition percent (GI %)
MOLT-4 = test: NCI-60 one-dose SRB screen (Leukemia); format: cell-based; settings: Homo sapiens, single dose 10 µM, 48 h, read-out: Growth inhibition percent (GI %)
RPMI-8226 = test: NCI-60 one-dose SRB screen (Leukemia); format: cell-based; settings: Homo sapiens, single dose 10 µM, 48 h, read-out: Growth inhibition percent (GI %)
SR = test: NCI-60 one-dose SRB screen (Leukemia); format: cell-based; settings: Homo sapiens, single dose 10 µM, 48 h, read-out: Growth inhibition percent (GI %)
A549/ATCC = test: NCI-60 one-dose SRB screen (Non-Small Cell Lung Cancer); format: cell-based; settings: Homo sapiens, single dose 10 µM, 48 h, read-out: Growth inhibition percent (GI %)
EKVX = test: as above; format: cell-based; settings: Homo sapiens, single dose 10 µM, 48 h, read-out: Growth inhibition percent (GI %)
HOP-62 = test: as above; format: cell-based; settings: Homo sapiens, single dose 10 µM, 48 h, read-out: Growth inhibition percent (GI %)
HOP-92 = test: as above; format: cell-based; settings: Homo sapiens, single dose 10 µM, 48 h, read-out: Growth inhibition percent (GI %)
NCI-H226 = test: as above; format: cell-based; settings: Homo sapiens, single dose 10 µM, 48 h, read-out: Growth inhibition percent (GI %)
NCI-H23 = test: as above; format: cell-based; settings: Homo sapiens, single dose 10 µM, 48 h, read-out: Growth inhibition percent (GI %)
NCI-H322M = test: as above; format: cell-based; settings: Homo sapiens, single dose 10 µM, 48 h, read-out: Growth inhibition percent (GI %)
NCI-H460 = test: as above; format: cell-based; settings: Homo sapiens, single dose 10 µM, 48 h, read-out: Growth inhibition percent (GI %)
NCI-H522 = test: as above; format: cell-based; settings: Homo sapiens, single dose 10 µM, 48 h, read-out: Growth inhibition percent (GI %)
COLO 205 = test: NCI-60 one-dose SRB screen (Colon Cancer); format: cell-based; settings: Homo sapiens, single dose 10 µM, 48 h, read-out: Growth inhibition percent (GI %)
HCC-2998 = test: NCI-60 one-dose SRB screen (Colon Cancer); format: cell-based; settings: Homo sapiens, single dose 10 µM, 48 h, read-out: Growth inhibition percent (GI %)
HCT-116 = test: NCI-60 one-dose SRB screen (Colon Cancer); format: cell-based; settings: Homo sapiens, single dose 10 µM, 48 h, read-out: Growth inhibition percent (GI %)
HCT-15 = test: NCI-60 one-dose SRB screen (Colon Cancer); format: cell-based; settings: Homo sapiens, single dose 10 µM, 48 h, read-out: Growth inhibition percent (GI %)
KM12 = test: NCI-60 one-dose SRB screen (Colon Cancer); format: cell-based; settings: Homo sapiens, single dose 10 µM, 48 h, read-out: Growth inhibition percent (GI %)
SW-620 = test: NCI-60 one-dose SRB screen (Colon Cancer); format: cell-based; settings: Homo sapiens, single dose 10 µM, 48 h, read-out: Growth inhibition percent (GI %)
LOX IMVI = test: NCI-60 one-dose SRB screen (Melanoma); format: cell-based; settings: Homo sapiens, single dose 10 µM, 48 h, read-out: Growth inhibition percent (GI %)
M14 = test: NCI-60 one-dose SRB screen (Melanoma); format: cell-based; settings: Homo sapiens, single dose 10 µM, 48 h, read-out: Growth inhibition percent (GI %)
MALME-3M = test: NCI-60 one-dose SRB screen (Melanoma); format: cell-based; settings: Homo sapiens, single dose 10 µM, 48 h, read-out: Growth inhibition percent (GI %)
MDA-MB-435 = test: NCI-60 one-dose SRB screen (Melanoma); format: cell-based; settings: Homo sapiens, single dose 10 µM, 48 h, read-out: Growth inhibition percent (GI %)
SK-MEL-28 = test: NCI-60 one-dose SRB screen (Melanoma); format: cell-based; settings: Homo sapiens, single dose 10 µM, 48 h, read-out: Growth inhibition percent (GI %)
SK-MEL-2 = test: NCI-60 one-dose SRB screen (Melanoma); format: cell-based; settings: Homo sapiens, single dose 10 µM, 48 h, read-out: Growth inhibition percent (GI %)
SK-MEL-5 = test: NCI-60 one-dose SRB screen (Melanoma); format: cell-based; settings: Homo sapiens, single dose 10 µM, 48 h, read-out: Growth inhibition percent (GI %)
UACC-257 = test: NCI-60 one-dose SRB screen (Melanoma); format: cell-based; settings: Homo sapiens, single dose 10 µM, 48 h, read-out: Growth inhibition percent (GI %)
UACC-62 = test: NCI-60 one-dose SRB screen (Melanoma); format: cell-based; settings: Homo sapiens, single dose 10 µM, 48 h, read-out: Growth inhibition percent (GI %)
IGROV1 = test: NCI-60 one-dose SRB screen (Ovarian cancer); format: cell-based; settings: Homo sapiens, IGROV-1, single dose 10 µM, 48 h, read-out: Growth inhibition percent (GI %)
NCI/ADR-RES = test: NCI-60 one-dose SRB screen (Ovarian cancer); format: cell-based; settings: Homo sapiens, single dose 10 µM, 48 h, read-out: Growth inhibition percent (GI %)
OVCAR-3 = test: NCI-60 one-dose SRB screen (Ovarian cancer); format: cell-based; settings: Homo sapiens, single dose 10 µM, 48 h, read-out: Growth inhibition percent (GI %)
OVCAR-4 = test: NCI-60 one-dose SRB screen (Ovarian cancer); format: cell-based; settings: Homo sapiens, single dose 10 µM, 48 h, read-out: Growth inhibition percent (GI %)
OVCAR-5 = test: NCI-60 one-dose SRB screen (Ovarian cancer); format: cell-based; settings: Homo sapiens, single dose 10 µM, 48 h, read-out: Growth inhibition percent (GI %)
OVCAR-8 = test: NCI-60 one-dose SRB screen (Ovarian cancer); format: cell-based; settings: Homo sapiens, single dose 10 µM, 48 h, read-out: Growth inhibition percent (GI %)
SK-OV-3 = test: NCI-60 one-dose SRB screen (Ovarian cancer); format: cell-based; settings: Homo sapiens, single dose 10 µM, 48 h, read-out: Growth inhibition percent (GI %)
DU-145 = test: NCI-60 one-dose SRB screen (Prostate Cancer); format: cell-based; settings: Homo sapiens, single dose 10 µM, 48 h, read-out: Growth inhibition percent (GI %)
PC-3 = test: NCI-60 one-dose SRB screen (Prostate Cancer); format: cell-based; settings: Homo sapiens, single dose 10 µM, 48 h, read-out: Growth inhibition percent (GI %)
HS 578T = test: NCI-60 one-dose SRB screen (Breast Cancer); format: cell-based; settings: Homo sapiens, single dose 10 µM, 48 h, read-out: Growth inhibition percent (GI %)
MCF-7 = test: NCI-60 one-dose SRB screen (Breast Cancer); format: cell-based; settings: Homo sapiens, MCF7, single dose 10 µM, 48 h, read-out: Growth inhibition percent (GI %)
MDA-MB-231/ATCC = test: NCI-60 one-dose SRB screen (Breast Cancer); format: cell-based; settings: Homo sapiens, single dose 10 µM, 48 h, read-out: Growth inhibition percent (GI %)
T-47D = test: NCI-60 one-dose SRB screen (Breast Cancer); format: cell-based; settings: Homo sapiens, T47D, single dose 10 µM, 48 h, read-out: Growth inhibition percent (GI %)
hCA IX = hCA IX (Homo sapiens, UniProt Q16790); test: CA inhibitory activity, spectrophotometric p-NPA assay; format: biochemical; settings: p-NPA substrate, pH 7.5, 25 °C, triplicate; read-out: IC50 (µM) ± SD hCA IX
Experimental: The software used to calculate CA IC50 along with statistical analysis of the results is GraphPad Prism 9.00. Results were estimated by using one-way ANOVA and the Bonferroni’s multiple comparisons posthoc test was performed (P < 0.05) [46]
Carbonic anhydrase inhibitory activity:
The spectrophotometric assay was conducted in HEPES-Tris buffer, NaCl of pH 7.5 (20mM) at 25◦C. Each inhibitory well-consisted of 50 μL of assay buffer solution, 20 μL of hCA enzyme solution (20 ng/μL in Assay Buffer), and 50 μL of test compound in HPLC grade DMSO (maintain 10% of the final concentration). The mixture solution was
Substrate p-nitrophenyl acetate (p-NPA) (0.7mM) was prepared in HPLC grade methanol and the reaction was started by adding 20 μL to a well in a 96-well-plate. The amount of product formed was measured for 30 min continuously at 1 min intervals at 400 nm in a 96-well-plate using xMARK microplate spectrophotometer, Bio-Rad (USA). The activity of the controlled compound was taken as 100%. All experiments were carried out in triplicates of each used concentration, and results are represented as a

SMILES: Cc1ccc(-c2nn(-c3ccc(S(N)(=O)=O)cc3)cc2-c2nnc(N)s2)cc1 [Compound 10, 4-[4-(5-Amino-1,3,4-thiadiazol-2-yl)-3-(p-tolyl)-1H-pyrazol-1-yl] benzenesulfonamide]
- inhibition at 10 µM (CCRF-CEM): 10.2%
- inhibition at 10 µM (HL-60(TB)): 9.66%
- inhibition at 10 µM (K-562): 11.1%
- inhibition at 10 µM (MOLT-4): < 5%
- inhibition at 10 µM (RPMI-8226): 10.2%
- inhibition at 10 µM (SR): < 5%
- inhibition at 10 µM (A549/ATCC): < 5%
- inhibition at 10 µM (EKVX): 10.5%
- inhibition at 10 µM (HOP-62): < 5%
- inhibition at 10 µM (HOP-92): 30.8%
- inhibition at 10 µM (NCI-H226): 5.79%
- inhibition at 10 µM (NCI-H23): 10.4%
- inhibition at 10 µM (NCI-H322M): < 5%
- inhibition at 10 µM (NCI-H460): < 5%
- inhibition at 10 µM (NCI-H522): 15.3%
- inhibition at 10 µM (COLO 205): < 5%
- inhibition at 10 µM (HCC-2998): < 5%
- inhibition at 10 µM (HCT-116): < 5%
- inhibition at 10 µM (HCT-15): < 5%
- inhibition at 10 µM (KM12): < 5%
- inhibition at 10 µM (SW-620): < 5%
- inhibition at 10 µM (LOX IMVI): 11.8%
- inhibition at 10 µM (M14): < 5%
- inhibition at 10 µM (MALME-3M): < 5%
- inhibition at 10 µM (MDA-MB-435): < 5%
- inhibition at 10 µM (SK-MEL-28): < 5%
- inhibition at 10 µM (SK-MEL-2): < 5%
- inhibition at 10 µM (SK-MEL-5): 18.5%
- inhibition at 10 µM (UACC-257): 5.16%
- inhibition at 10 µM (UACC-62): < 5%
- inhibition at 10 µM (IGROV1): < 5%
- inhibition at 10 µM (NCI/ADR-RES): < 5%
- inhibition at 10 µM (OVCAR-3): < 5%
- inhibition at 10 µM (OVCAR-4): < 5%
- inhibition at 10 µM (OVCAR-5): < 5%
- inhibition at 10 µM (OVCAR-8): < 5%
- inhibition at 10 µM (SK-OV-3): < 5%
- inhibition at 10 µM (DU-145): < 5%
- inhibition at 10 µM (PC-3): 8.5%
- inhibition at 10 µM (HS 578T): 5.02%
- inhibition at 10 µM (MCF-7): 15.8%
- inhibition at 10 µM (MDA-MB-231/ATCC): < 5%
- inhibition at 10 µM (T-47D): 13.2%
- IC50 (hCA IX): 0.66 µM and 0.663 µM
- melting point: 230 to 234 °C
